Assay results as given in patent US10597387B2, “Methods to treat lymphoplasmacytic lymphoma” (Dana-Farber Cancer Institute, Inc., priority 2013, dated 2020).
Like-named read-outs stand apart in the source and are kept apart here.

Experiments:
Test in all cases: KiNativ kinase profiling
[1] = target: ATR (Homo sapiens (Human), UniProt Q13535); assay type: binding; details: ATP, A375 cells, read-out: inhibition of kinase labeling
[2] = target: PFTAIRE1 (Homo sapiens (Human), UniProt O94921); assay type: binding; details: Lys1, A375 cells, read-out: inhibition of kinase labeling
[3] = target: TAO2 (Homo sapiens (Human), UniProt Q9UL54); assay type: binding; details: Lys2, A375 cells, read-out: inhibition of kinase labeling
[4] = target: NDR1 (Homo sapiens (Human), UniProt Q15208); assay type: binding; details: Lys1, A375 cells, read-out: inhibition of kinase labeling
[5] = target: ZAK (Homo sapiens (Human), UniProt Q9NYL2); assay type: binding
[6] = test system: TAO1, TAO3; assay type: binding, Homo sapiens; details: Lys2, 1 μM, A375 cells
[7] = target: AurB (Homo sapiens (Human), UniProt Q96GD4); assay type: binding; details: Lys1, A375 cells, read-out: inhibition of kinase labeling
[8] = target: BRAF (Homo sapiens (Human), UniProt P15056, V600E); assay type: binding; details: Lys2, A375 cells, read-out: inhibition of kinase labeling
[9] = target: LKB1 (Homo sapiens (Human), UniProt Q15831); assay type: binding; details: Lys2, A375 cells, read-out: inhibition of kinase labeling
[10] = target: eEF2K (Homo sapiens (Human), UniProt O00418); assay type: binding; details: ATP, A375 cells, read-out: inhibition of kinase labeling
[11] = target: PYK2 (Homo sapiens (Human), UniProt Q14289); assay type: binding; details: Activation Loop, A375 cells, read-out: inhibition of kinase labeling
[12] = target: SLK (Homo sapiens (Human), UniProt Q9H2G2); assay type: binding; details: Lys2, A375 cells, read-out: inhibition of kinase labeling
[13] = target: STLK5 (Homo sapiens (Human), UniProt Q7RTN6); assay type: binding; details: Activation Loop, A375 cells, read-out: inhibition of kinase labeling
[14] = target: FER (Homo sapiens (Human), UniProt P16591); assay type: binding; details: Lys1, A375 cells, read-out: inhibition of kinase labeling
[15] = test system: MARK2, MARK3; assay type: binding, Homo sapiens; details: Lys2, 1 μM, A375 cells
[16] = test system: FYN, SRC, YES; assay type: binding, Homo sapiens; details: Activation Loop, 1 μM, A375 cells
[17] = target: TLK1 (Homo sapiens (Human), UniProt Q9UKI8); assay type: binding; details: Lys2, A375 cells, read-out: inhibition of kinase labeling
[18] = target: MAP3K1 (Homo sapiens (Human), UniProt Q13233); assay type: binding; details: Lys2, A375 cells, read-out: inhibition of kinase labeling
[19] = target: PKR (Homo sapiens (Human), UniProt P19525); assay type: binding; details: Lys2, A375 cells, read-out: inhibition of kinase labeling
[20] = target: MARK3 (Homo sapiens (Human), UniProt P27448); assay type: binding; details: Lys1, A375 cells, read-out: inhibition of kinase labeling
[21] = test system: MAP3K2, MAP3K3; assay type: binding, Homo sapiens; details: Lys2, 1 μM, A375 cells
[22] = target: AurA (Homo sapiens (Human), UniProt O14965); assay type: binding; details: Lys2, A375 cells, read-out: inhibition of kinase labeling
[23] = target: MAP2K1 (Homo sapiens (Human), UniProt Q02750); assay type: binding; details: Lys2, A375 cells, read-out: inhibition of kinase labeling
[24] = target: RSK2 domain1 (Homo sapiens (Human), UniProt P51812); assay type: binding; details: Lys2, A375 cells, read-out: inhibition of kinase labeling
[25] = test system: JNK1, JNK2, JNK3; assay type: binding, Homo sapiens; details: Lys2, 1 μM, A375 cells
[26] = target: BARK1 (Homo sapiens (Human), UniProt P25098); assay type: binding; details: Lys2, A375 cells, read-out: inhibition of kinase labeling
[27] = target: MST1 (Homo sapiens (Human), UniProt Q13043); assay type: binding; details: Lys1, A375 cells, read-out: inhibition of kinase labeling
[28] = target: LYN (Homo sapiens (Human), UniProt P07948); assay type: binding; details: read-out: inhibition of kinase labeling
[29] = test system: MARK1, MARK2; assay type: binding, Homo sapiens; details: Lys1, 1 μM, A375 cells
[30] = target: CDC2 (Homo sapiens (Human), UniProt P06493); assay type: binding; details: Lys2, A375 cells, read-out: inhibition of kinase labeling
[31] = target: PIP4K2A (Homo sapiens (Human), UniProt P48426); assay type: binding; details: ATP, A375 cells, read-out: inhibition of kinase labeling
[32] = target: Erk2 (Homo sapiens (Human), UniProt P28482); assay type: binding; details: Lys2, A375 cells, read-out: inhibition of kinase labeling
[33] = target: MAP3K5 (Homo sapiens (Human), UniProt Q99683); assay type: binding; details: Lys2, A375 cells, read-out: inhibition of kinase labeling
[34] = target: RSK2 domain2 (Homo sapiens (Human), UniProt P51812); assay type: binding; details: Lys2, A375 cells, read-out: inhibition of kinase labeling
[35] = target: MAST3 (Homo sapiens (Human), UniProt O60307); assay type: binding; details: Lys2, A375 cells, read-out: inhibition of kinase labeling
[36] = target: SYK (Homo sapiens (Human), UniProt P43405); assay type: binding; details: read-out: inhibition of kinase labeling
[37] = target: CK1a (Homo sapiens (Human), UniProt P48729); assay type: binding; details: Lys2, A375 cells, read-out: inhibition of kinase labeling
[38] = target: NDR2 (Homo sapiens (Human), UniProt Q9Y2H1); assay type: binding; details: Lys2, A375 cells, read-out: inhibition of kinase labeling
[39] = target: SGK3 (Homo sapiens (Human), UniProt Q96BR1); assay type: binding; details: Lys1, A375 cells, read-out: inhibition of kinase labeling
[40] = target: MAP2K3 (Homo sapiens (Human), UniProt P46734); assay type: binding; details: Lys2, A375 cells, read-out: inhibition of kinase labeling
Sequence of MAP2K3 (P46734 whole entry): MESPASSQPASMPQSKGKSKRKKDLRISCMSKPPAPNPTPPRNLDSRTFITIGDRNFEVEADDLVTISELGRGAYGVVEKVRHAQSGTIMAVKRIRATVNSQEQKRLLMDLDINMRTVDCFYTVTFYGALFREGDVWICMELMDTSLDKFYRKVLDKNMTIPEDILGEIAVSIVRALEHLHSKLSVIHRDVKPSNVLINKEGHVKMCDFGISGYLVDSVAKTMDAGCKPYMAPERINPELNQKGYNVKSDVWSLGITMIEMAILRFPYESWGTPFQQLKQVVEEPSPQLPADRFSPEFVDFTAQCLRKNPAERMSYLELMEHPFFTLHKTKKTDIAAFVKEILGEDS

Sequence of ZAK (Q9NYL2 whole entry): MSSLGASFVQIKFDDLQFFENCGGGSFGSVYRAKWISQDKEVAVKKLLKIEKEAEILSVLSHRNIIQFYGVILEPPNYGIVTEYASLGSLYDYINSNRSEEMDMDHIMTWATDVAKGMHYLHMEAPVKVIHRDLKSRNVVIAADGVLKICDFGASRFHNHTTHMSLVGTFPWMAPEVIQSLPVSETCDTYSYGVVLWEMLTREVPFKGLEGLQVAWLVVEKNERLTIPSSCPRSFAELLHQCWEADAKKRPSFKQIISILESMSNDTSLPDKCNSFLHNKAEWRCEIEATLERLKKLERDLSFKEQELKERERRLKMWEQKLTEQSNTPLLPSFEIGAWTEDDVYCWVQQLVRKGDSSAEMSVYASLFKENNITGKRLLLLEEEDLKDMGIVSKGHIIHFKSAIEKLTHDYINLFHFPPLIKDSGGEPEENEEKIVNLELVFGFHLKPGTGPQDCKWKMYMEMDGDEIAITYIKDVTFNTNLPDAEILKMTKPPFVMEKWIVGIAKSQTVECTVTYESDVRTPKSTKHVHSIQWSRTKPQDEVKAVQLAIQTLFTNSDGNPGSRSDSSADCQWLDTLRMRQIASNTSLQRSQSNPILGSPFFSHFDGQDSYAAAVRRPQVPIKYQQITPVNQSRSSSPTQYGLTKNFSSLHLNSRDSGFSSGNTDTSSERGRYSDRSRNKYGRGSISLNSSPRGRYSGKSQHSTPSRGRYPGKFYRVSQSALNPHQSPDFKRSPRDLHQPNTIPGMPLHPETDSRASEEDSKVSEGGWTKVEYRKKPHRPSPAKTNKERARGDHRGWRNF
Sequence of LYN (P07948 whole entry): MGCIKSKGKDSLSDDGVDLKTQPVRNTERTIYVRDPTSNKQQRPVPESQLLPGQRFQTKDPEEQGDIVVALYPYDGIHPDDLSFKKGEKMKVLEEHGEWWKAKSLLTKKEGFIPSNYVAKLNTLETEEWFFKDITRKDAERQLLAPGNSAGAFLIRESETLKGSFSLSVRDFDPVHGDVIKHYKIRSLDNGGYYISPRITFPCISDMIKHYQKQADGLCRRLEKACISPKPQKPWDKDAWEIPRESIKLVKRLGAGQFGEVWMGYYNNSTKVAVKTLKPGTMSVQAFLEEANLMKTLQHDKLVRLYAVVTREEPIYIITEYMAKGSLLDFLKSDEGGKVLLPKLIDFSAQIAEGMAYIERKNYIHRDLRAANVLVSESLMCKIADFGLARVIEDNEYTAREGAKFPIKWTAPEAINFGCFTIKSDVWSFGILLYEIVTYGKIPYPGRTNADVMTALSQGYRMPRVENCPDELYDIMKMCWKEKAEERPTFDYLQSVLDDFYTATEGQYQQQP
Sequence of BRAF (P15056 whole entry V600E): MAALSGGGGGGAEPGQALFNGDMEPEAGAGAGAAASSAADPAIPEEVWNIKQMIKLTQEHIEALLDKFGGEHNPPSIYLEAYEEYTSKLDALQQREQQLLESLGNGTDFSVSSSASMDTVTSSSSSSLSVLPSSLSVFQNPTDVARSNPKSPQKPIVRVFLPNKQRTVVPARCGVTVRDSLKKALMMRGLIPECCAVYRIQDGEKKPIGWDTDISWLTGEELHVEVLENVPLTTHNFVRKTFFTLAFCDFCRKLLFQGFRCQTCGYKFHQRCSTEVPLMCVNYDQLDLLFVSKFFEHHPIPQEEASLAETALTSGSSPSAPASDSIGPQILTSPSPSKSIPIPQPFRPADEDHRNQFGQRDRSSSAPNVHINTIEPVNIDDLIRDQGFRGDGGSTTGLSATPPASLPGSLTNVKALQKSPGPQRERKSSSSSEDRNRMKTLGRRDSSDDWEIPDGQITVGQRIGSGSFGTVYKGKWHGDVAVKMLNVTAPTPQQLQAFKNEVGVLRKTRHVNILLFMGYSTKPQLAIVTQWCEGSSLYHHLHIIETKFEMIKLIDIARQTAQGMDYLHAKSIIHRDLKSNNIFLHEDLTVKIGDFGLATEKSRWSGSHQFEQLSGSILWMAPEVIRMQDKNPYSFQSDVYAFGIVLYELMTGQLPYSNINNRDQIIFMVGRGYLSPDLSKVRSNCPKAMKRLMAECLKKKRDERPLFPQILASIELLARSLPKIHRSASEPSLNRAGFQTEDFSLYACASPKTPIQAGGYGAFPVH
Sequence of MAP3K1 (Q13233 whole entry): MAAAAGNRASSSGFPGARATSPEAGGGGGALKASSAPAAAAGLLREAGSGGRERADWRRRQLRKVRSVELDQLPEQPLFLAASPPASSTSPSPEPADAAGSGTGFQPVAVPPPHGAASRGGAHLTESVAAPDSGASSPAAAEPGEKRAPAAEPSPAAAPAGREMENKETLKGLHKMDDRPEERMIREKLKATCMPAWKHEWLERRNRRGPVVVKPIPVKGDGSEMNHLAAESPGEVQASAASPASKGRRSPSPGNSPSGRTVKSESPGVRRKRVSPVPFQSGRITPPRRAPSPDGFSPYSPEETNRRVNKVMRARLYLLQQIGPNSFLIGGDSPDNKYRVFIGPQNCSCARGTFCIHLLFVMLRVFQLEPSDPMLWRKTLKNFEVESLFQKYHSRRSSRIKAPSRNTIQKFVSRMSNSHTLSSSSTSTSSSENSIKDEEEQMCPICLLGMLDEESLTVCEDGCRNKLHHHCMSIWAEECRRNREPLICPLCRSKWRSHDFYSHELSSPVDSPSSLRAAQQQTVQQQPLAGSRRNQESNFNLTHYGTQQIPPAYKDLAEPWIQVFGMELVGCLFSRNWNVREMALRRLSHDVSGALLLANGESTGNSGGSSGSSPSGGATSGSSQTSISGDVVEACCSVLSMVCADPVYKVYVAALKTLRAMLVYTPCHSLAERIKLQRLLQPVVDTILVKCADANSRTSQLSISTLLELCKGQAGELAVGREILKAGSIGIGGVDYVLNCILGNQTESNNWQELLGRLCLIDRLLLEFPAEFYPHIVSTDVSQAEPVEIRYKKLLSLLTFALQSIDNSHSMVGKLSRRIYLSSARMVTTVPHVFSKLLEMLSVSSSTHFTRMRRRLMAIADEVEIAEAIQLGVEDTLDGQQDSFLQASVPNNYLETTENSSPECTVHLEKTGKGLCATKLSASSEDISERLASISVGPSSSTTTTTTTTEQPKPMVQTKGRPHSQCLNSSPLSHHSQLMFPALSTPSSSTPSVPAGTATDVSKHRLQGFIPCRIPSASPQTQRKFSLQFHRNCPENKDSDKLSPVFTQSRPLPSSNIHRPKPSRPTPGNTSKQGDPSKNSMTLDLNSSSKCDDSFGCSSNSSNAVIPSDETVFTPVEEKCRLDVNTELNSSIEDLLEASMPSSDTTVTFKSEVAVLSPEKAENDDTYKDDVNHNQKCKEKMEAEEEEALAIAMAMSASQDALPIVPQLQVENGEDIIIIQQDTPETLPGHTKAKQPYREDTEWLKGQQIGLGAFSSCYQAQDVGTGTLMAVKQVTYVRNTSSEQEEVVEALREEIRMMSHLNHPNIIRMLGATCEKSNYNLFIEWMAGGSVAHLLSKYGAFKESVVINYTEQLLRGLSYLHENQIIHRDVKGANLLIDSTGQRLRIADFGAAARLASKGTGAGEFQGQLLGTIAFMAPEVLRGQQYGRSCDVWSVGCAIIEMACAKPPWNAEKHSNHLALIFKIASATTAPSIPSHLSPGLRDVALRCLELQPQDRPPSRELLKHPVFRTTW
Sequence of PIP4K2A (P48426 whole entry): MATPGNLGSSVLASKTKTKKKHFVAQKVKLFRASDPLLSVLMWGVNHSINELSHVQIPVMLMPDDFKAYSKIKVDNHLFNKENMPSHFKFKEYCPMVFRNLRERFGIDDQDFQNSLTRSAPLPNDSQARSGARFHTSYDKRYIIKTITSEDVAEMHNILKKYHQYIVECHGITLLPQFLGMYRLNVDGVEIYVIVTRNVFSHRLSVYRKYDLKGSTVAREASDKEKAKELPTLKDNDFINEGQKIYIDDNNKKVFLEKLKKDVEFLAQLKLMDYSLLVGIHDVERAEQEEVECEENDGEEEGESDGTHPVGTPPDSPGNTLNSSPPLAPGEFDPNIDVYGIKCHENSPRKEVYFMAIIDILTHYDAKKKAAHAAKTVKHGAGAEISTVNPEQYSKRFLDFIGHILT
Sequence of MST1 (Q13043 whole entry): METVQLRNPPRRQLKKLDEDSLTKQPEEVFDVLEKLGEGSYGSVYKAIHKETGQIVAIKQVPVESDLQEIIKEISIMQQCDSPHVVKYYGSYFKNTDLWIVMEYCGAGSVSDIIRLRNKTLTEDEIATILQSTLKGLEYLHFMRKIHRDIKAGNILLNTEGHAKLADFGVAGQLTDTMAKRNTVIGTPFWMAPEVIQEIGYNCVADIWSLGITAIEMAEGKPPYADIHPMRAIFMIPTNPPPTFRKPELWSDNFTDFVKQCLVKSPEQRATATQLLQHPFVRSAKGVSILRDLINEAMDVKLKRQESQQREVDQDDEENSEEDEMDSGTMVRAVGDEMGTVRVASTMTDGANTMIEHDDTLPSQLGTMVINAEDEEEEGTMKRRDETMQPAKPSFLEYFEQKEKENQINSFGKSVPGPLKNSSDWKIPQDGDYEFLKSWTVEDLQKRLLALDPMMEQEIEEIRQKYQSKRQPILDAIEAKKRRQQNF

Structure (SMILES): Cc1ccc(C(=O)Nc2cccc(C(C)(C)C#N)c2)cc1NC(=O)c1cncc(-c2cccs2)c1 [I-6, N-(5-((3-(2-cyanopropan-2-yl)phenyl)carbamoyl)-2-methylphenyl)-5-(thiophen-2-yl)nicotinamide]
- inhibition at 1 µM [1]: 26.2%
- inhibition at 1 µM [2]: -31.3%
- inhibition at 1 µM [3]: 33.4%
- inhibition at 1 µM [4]: -10.5%
- inhibition of kinase labeling ([5]; Lys1, 1 μM, A375 cells): >95%
- inhibition at 1 µM ([5]; Lys1, A375 cells, read-out: inhibition of kinase labeling): > 95%
- inhibition of kinase labeling [6]: 11.9%
- inhibition at 1 µM [7]: -94%
- inhibition at 1 µM [8]: -20.3%
- inhibition at 1 µM [9]: 4.9%
- inhibition at 1 µM [10]: 12%
- inhibition at 1 µM [11]: 5.4%
- inhibition at 1 µM [12]: -19.5%
- inhibition at 1 µM [13]: -17.8%
- inhibition at 1 µM [14]: -9.6%
- inhibition of kinase labeling [15]: 17.2%
- inhibition of kinase labeling [16]: 55.7%
- inhibition at 1 µM [17]: 3.9%
- inhibition at 1 µM [18]: 9.8%
- inhibition at 1 µM [19]: 3.2%
- inhibition at 1 µM [20]: -2.2%
- inhibition of kinase labeling [21]: −15.3%
- inhibition at 1 µM [22]: -21.6%
- inhibition at 1 µM [23]: 10.8%
- inhibition at 1 µM [24]: 5%
- inhibition of kinase labeling [25]: 11.7%
- inhibition at 1 µM [26]: -1.2%
- inhibition at 1 µM [27]: -26.3%
- inhibition at 1 µM ([28]; Activation Loop, A375 cells): 68.5%
- inhibition at 1 µM ([28]; Lys1, A375 cells): 87.6%
- inhibition of kinase labeling [29]: −4.9%
- inhibition at 1 µM [30]: -7.9%
- inhibition at 1 µM [31]: 12.8%
- inhibition at 1 µM [32]: -11%
- inhibition at 1 µM [33]: 16.2%
- inhibition at 1 µM [34]: -15.8%
- inhibition at 1 µM [35]: 18.9%
- inhibition at 1 µM ([36]; Activation Loop, A375 cells): -7.9%
- inhibition at 1 µM ([36]; Lys1, A375 cells): -38.5%
- inhibition at 1 µM [37]: 25.1%
- inhibition at 1 µM [38]: -12.5%
- inhibition at 1 µM [39]: -7.2%
- inhibition at 1 µM [40]: 4.9%
